Source: article PMC10673995, “Discovery of a novel cardiac-specific myosin modulator using artificial intelligence-based virtual screening” (Nature Communications, 2023)
Several values for one entry are separate records, joined by “and”; a condition that tells them apart may be missing. Identical values can stand only once.

System: isolated Langendorff-perfused rat hearts
Experiment: Langendorff-perfused rat hearts, haemodynamic parameters
Design: key to LVSP, individual hearts / LVEDP, individual hearts: pressure in mmHg; Max (Figure 5c): unit not given here
Conditions: for Max (Figure 5c): one column per heart; for LVSP representative trace, ON: during perfusion with compound
Procedure: Next, we tested for the functional effects of F10 in isolated Langendorff-perfused rat hearts. Hearts were initially stabilized in modified Krebs-Henseleit (KH) solution for about 25–30 min and subsequently perfused with KH solution containing 20 μmol L^−1 F10 for 5 mins to reach a new steady state.
Rat hearts were Langendorff-perfused as described previously. Briefly, Wistar rats (Rattus norvegicus, male, 200–250 g, 7 weeks old) were anesthetized by injection of 0.9 mL sodium pentobarbitone 20% (w/v). […] The aorta was cannulated and secured with sutures (Mersilk 3‐0; Ethicon, Somerville, NJ, USA). Hearts were perfused at a constant perfusion pressure of 70 ± 2 mmHg using a peristaltic pump (Gilson Minipuls 4, Middleton, WI, USA) and a feedback control system (STH Pump Controller; AD Instruments, Oxford, UK). […] A fluid‐filled balloon, attached to a pressure transducer, was inserted into the left ventricle and inflated to give an end‐diastolic pressure between 3 and 8 mmHg. Left ventricular pressure (LVP), perfusion pressure, coronary flow and arterial and venous oxygen tensions were recorded using a PowerLab recorder and LabChart 8.0 software (ADInstruments). Functional parameters were averaged for ∼80 cardiac cycles at 5 min intervals.

[1] = 20 μmol L^−1 F10 or 1 μmol L^−1 Mavacamten
[2] = Time 11 min, during perfusion with 20 μmol L^−1 F10 or 1 μmol L^-1 Mavacamten
[3] = Time 12 min, during perfusion with 20 μmol L^−1 F10 or 1 μmol L^-1 Mavacamten
[4] = Time 13 min, during perfusion with 20 μmol L^−1 F10 or 1 μmol L^-1 Mavacamten
[5] = Time 14 min, during perfusion with 20 μmol L^−1 F10 or 1 μmol L^-1 Mavacamten
[6] = Time 15 min, during perfusion with 20 μmol L^−1 F10 or 1 μmol L^-1 Mavacamten

SMILES: CC(C)n1c(=O)cc(N[C@@H](C)c2ccccc2)[nH]c1=O [Mavacamten]
- effect on coronary perfusion / coronary flow [1]: without affecting
- effect on heart rate [1]: without affecting
- effect on left ventricular end-diastolic pressure (LVEDP) [1]: did not affect
- Max (Figure 5c) (Time 0 min): 3876.58 and 5238.56 and 5331.08 and 5274.63
- Max (Figure 5c) (Time 1 min): 3763.48 and 5575.44 and 5372.46 and 4664.37
- Max (Figure 5c) (Time 2 min): 3604.67 and 5570.63 and 5457.56 and 4849.22
- Max (Figure 5c) (Time 3 min): 3616.7 and 5958.05 and 5555.1 and 4920.12
- Max (Figure 5c) (Time 4 min): 3720.17 and 5852.17 and 5485.6 and 4634
- Max (Figure 5c) (Time 5 min): 3611.89 and 6003.77 and 5528.57 and 4575.4
- Max (Figure 5c) (Time 6 min): 3669.64 and 6398.4 and 5572.15 and 4575.4
- Max (Figure 5c) (Time 7 min): 3638.35 and 5690.95 and 5454.91 and 4575.4
- Max (Figure 5c) (Time 8 min): 3568.57 and 5926.76 and 5613.04 and 4575.4
- Max (Figure 5c) (Time 9 min): 3638.35 and 6073.55 and 6702.43 and 4575.4
- Max (Figure 5c) (Time 10 min): 3558.95 and 6376.75 and 5920.41 and 4694.75
- LVEDP, individual hearts [2]: 1 mmHg (2×) and 2 mmHg (2×) and 3 mmHg
- LVSP, individual hearts [2]: 91 and 157 and 150 and 205 and 152
- Max (Figure 5c) (Time 11 min): 3462.69 and 5852.17 and 5171.55 and 4904.93
- LVEDP, individual hearts [3]: 0 and 1 (2×) and 2 and 3
- LVSP, individual hearts [3]: 71 and 113 and 134 and 163 and 147
- Max (Figure 5c) (Time 12 min): 2779.3 and 4057.05 and 4519.31 and 4773.25
- LVEDP, individual hearts [4]: 0 and 1 (2×) and 3 and 5
- LVSP, individual hearts [4]: 60 and 95 and 115 and 137 and 135
- Max (Figure 5c) (Time 13 min): 2415.94 and 3070.46 and 3716.1 and 3709.72
- LVEDP, individual hearts [5]: 0 and 1 (2×) and 2 and 5
- LVSP, individual hearts [5]: 51 and 81 and 104 and 115 and 105
- Max (Figure 5c) (Time 14 min): 2076.65 and 2695.08 and 3441.74 and 3481.82
- LVEDP, individual hearts [6]: 0 and 1 (2×) and 2 and 7
- LVSP, individual hearts [6]: 45 and 71 and 97 and 99 and 100
- Max (Figure 5c) (Time 15 min): 1876.93 and 2447.23 and 3260.21 and 3233.66
- LVEDP, individual hearts (Time 16 min, after washout): 0 and 1 (2×) and 3 and 5
- LVSP, individual hearts (Time 16 min, after washout): 44 and 65 and 100 and 90 and 98
- LVEDP, individual hearts (Time 17 min, after washout): 0 and 1 (2×) and 3 and 2
- LVSP, individual hearts (Time 17 min, after washout): 49 and 71 and 103 and 101 and 98
- LVEDP, individual hearts (Time 18 min, after washout): 1 mmHg (4×) and 3 mmHg
- LVSP, individual hearts (Time 18 min, after washout): 52 and 78 and 106 and 103 and 96
- LVEDP, individual hearts (Time 19 min, after washout): 1 mmHg (4×) and 2 mmHg
- LVSP, individual hearts (Time 19 min, after washout): 55 and 83 and 109 (2×) and 98
- LVEDP, individual hearts (Time 20 min, after washout): 1 mmHg (3×) and 2 mmHg (2×)
- LVSP, individual hearts (Time 20 min, after washout): 58 and 87 and 114 (2×) and 98
- Max (Figure 5c) (Time 20 min): 2218.63 and 2954.96 and 3682.2 and 4327.58
- LVEDP, individual hearts (Time 21 min, after washout): 1 mmHg (3×) and 2 mmHg (2×)
- LVSP, individual hearts (Time 21 min, after washout): 60 and 101 (2×) and 118 (2×)
- Max (Figure 5c) (Time 21 min): 2317.29 and 3027.15 and 3768.27 and 4469.39
- LVEDP, individual hearts (Time 22 min, after washout): 1 mmHg (4×) and 0 mmHg
- LVSP, individual hearts (Time 22 min, after washout): 63 and 96 and 122 and 121 and 125
- Max (Figure 5c) (Time 22 min): 2358.19 and 3503.6 and 3945.22 and 4568.14
- LVEDP, individual hearts (Time 23 min, after washout): 1 mmHg (2×) and 0 mmHg and 2 mmHg and 3 mmHg
- LVSP, individual hearts (Time 23 min, after washout): 66 and 99 and 125 and 126 and 103
- Max (Figure 5c) (Time 23 min): 2526.64 and 3729.79 and 4137.98 and 4461.79
- LVEDP, individual hearts (Time 24 min, after washout): 1 mmHg (4×) and 0 mmHg
- LVSP, individual hearts (Time 24 min, after washout): 67 and 106 and 126 and 130 and 104
- Max (Figure 5c) (Time 24 min): 2654.17 and 3905.46 and 4295.47 and 4963.17
- LVEDP, individual hearts (Time 25 min, after washout): 1 and 0 (2×) and 3 and 2
- LVSP, individual hearts (Time 25 min, after washout): 67 and 105 and 127 and 133 and 110
- Max (Figure 5c) (Time 25 min): 2752.83 and 3729.79 and 4394.02 and 5097.38
- LVSP representative trace, OFF (after washout, t 0 s): 97.9459 mmHg
- LVSP representative trace, OFF (after washout, t 10 s): 98.66 mmHg
- LVSP representative trace, OFF (after washout, t 20 s): 99.4941 mmHg
- LVSP representative trace, OFF (after washout, t 30 s): 99.8652 mmHg
- LVSP representative trace, OFF (after washout, t 40 s): 99.9074 mmHg
- LVSP representative trace, OFF (after washout, t 50 s): 100.799 mmHg
- LVSP representative trace, OFF (after washout, t 60 s): 101.94 mmHg
- LVSP representative trace, OFF (after washout, t 70 s): 102.076 mmHg
- LVSP representative trace, OFF (after washout, t 80 s): 102.473 mmHg
- LVSP representative trace, OFF (after washout, t 90 s): 103.301 mmHg
- LVSP representative trace, OFF (after washout, t 100 s): 104.178 mmHg
- LVSP representative trace, OFF (after washout, t 110 s): 104.015 mmHg
- LVSP representative trace, OFF (after washout, t 120 s): 104.172 mmHg
- LVSP representative trace, OFF (after washout, t 130 s): 104.333 mmHg
- LVSP representative trace, OFF (after washout, t 140 s): 104.863 mmHg
- LVSP representative trace, OFF (after washout, t 150 s): 105.62 mmHg
- LVSP representative trace, OFF (after washout, t 160 s): 106.146 mmHg
- LVSP representative trace, OFF (after washout, t 170 s): 107.035 mmHg
- LVSP representative trace, OFF (after washout, t 180 s): 107.188 mmHg
- LVSP representative trace, OFF (after washout, t 190 s): 108.073 mmHg
- LVSP representative trace, OFF (after washout, t 200 s): 108.759 mmHg
- LVSP representative trace, OFF (after washout, t 210 s): 109.171 mmHg
- LVSP representative trace, OFF (after washout, t 220 s): 109.899 mmHg
- LVSP representative trace, OFF (after washout, t 230 s): 110.383 mmHg
- LVSP representative trace, OFF (after washout, t 240 s): 111.699 mmHg
- LVSP representative trace, OFF (after washout, t 250 s): 111.591 mmHg
- LVSP representative trace, OFF (after washout, t 260 s): 112.354 mmHg
- LVSP representative trace, OFF (after washout, t 270 s): 113.909 mmHg
- LVSP representative trace, OFF (after washout, t 280 s): 115.189 mmHg
- LVSP representative trace, OFF (after washout, t 290 s): 115.643 mmHg
- LVSP representative trace, OFF (after washout, t 300 s): 115.694 mmHg
- LVSP representative trace, OFF (after washout, t 310 s): 117.014 mmHg
- LVSP representative trace, OFF (after washout, t 320 s): 117.329 mmHg
- LVSP representative trace, OFF (after washout, t 330 s): 117.56 mmHg
- LVSP representative trace, OFF (after washout, t 340 s): 118.377 mmHg
- LVSP representative trace, OFF (after washout, t 350 s): 118.795 mmHg
- LVSP representative trace, OFF (after washout, t 360 s): 118.884 mmHg
- LVSP representative trace, OFF (after washout, t 370 s): 120.043 mmHg
- LVSP representative trace, OFF (after washout, t 380 s): 121.007 mmHg
- LVSP representative trace, OFF (after washout, t 390 s): 121.543 mmHg
- LVSP representative trace, OFF (after washout, t 400 s): 122.385 mmHg
- LVSP representative trace, ON (t 0 s): 185.674 mmHg
- LVSP representative trace, ON (t 10 s): 179.044 mmHg
- LVSP representative trace, ON (t 20 s): 172.645 mmHg
- LVSP representative trace, ON (t 30 s): 172.645 mmHg
- LVSP representative trace, ON (t 40 s): 172.645 mmHg
- LVSP representative trace, ON (t 50 s): 163.036 mmHg
- LVSP representative trace, ON (t 60 s): 160.436 mmHg
- LVSP representative trace, ON (t 70 s): 155.482 mmHg
- LVSP representative trace, ON (t 80 s): 149.519 mmHg
- LVSP representative trace, ON (t 90 s): 144.889 mmHg
- LVSP representative trace, ON (t 100 s): 139.74 mmHg
- LVSP representative trace, ON (t 110 s): 137.111 mmHg
- LVSP representative trace, ON (t 120 s): 131.856 mmHg
- LVSP representative trace, ON (t 130 s): 128.177 mmHg
- LVSP representative trace, ON (t 140 s): 123.963 mmHg
- LVSP representative trace, ON (t 150 s): 121.031 mmHg
- LVSP representative trace, ON (t 160 s): 117.5 mmHg
- LVSP representative trace, ON (t 170 s): 114.951 mmHg
- LVSP representative trace, ON (t 180 s): 110.93 mmHg
- LVSP representative trace, ON (t 190 s): 108.804 mmHg
- LVSP representative trace, ON (t 200 s): 106.216 mmHg
- LVSP representative trace, ON (t 210 s): 103.076 mmHg
- LVSP representative trace, ON (t 220 s): 101.63 mmHg
- LVSP representative trace, ON (t 230 s): 99.0368 mmHg
- LVSP representative trace, ON (t 240 s): 96.0294 mmHg
- LVSP representative trace, ON (t 250 s): 94.9632 mmHg
- LVSP representative trace, ON (t 260 s): 93.4811 mmHg
- LVSP representative trace, ON (t 270 s): 90.0331 mmHg
- LVSP representative trace, ON (t 280 s): 88.9689 mmHg
